# According to patent US8846570B2, “Herbicidal compositions comprising 4-amino-3-chloro-5-fluoro-6-(4-chloro-2-fluoro-3-methoxyphenyl)pyridine-2-carboxylic acid or a derivative thereof and microtubule inhibiting herbicides” (Dow AgroSciences LLC, priority 2012, dated 2014):
# Key:
# Test in all cases: Postemergence foliar-applied, direct seeded rice, greenhouse: visual weed control
# Format in all cases: in vivo
# [1] = test system: Schoenoplectus juncoides (Roxb.) Palla (SCPJU); conditions: 20 DAA; 5.3 g ae/ha
# Method: (§1) Seeds or nutlets of the desired test plant species were planted in a soil matrix prepared by mixing a loam or sandy loam soil (e.g., 28.6 percent silt, 18.8 percent clay, and 52.6 percent sand, with a pH of about 5.8 and an organic matter content of about 1.8 percent) and calcareous grit in an 80 to 20 ratio. The soil matrix was contained in plastic pots with a volume of 1 quart and a surface area of 83.6 cm^2. […] The plants were grown for 8-22 days in a greenhouse with an approximate 14 h photoperiod which was maintained at about 29° C. during the day and 26° C. during the night. Nutrients (Peters Excel® 15-5-15 5-Ca 2-Mg and iron chelate) were applied in the irrigation solution as needed and water was added on a regular basis. Supplemental lighting was provided with overhead metal halide 1000-Watt lamps as necessary. The plants were employed for testing when they reached the first through fourth true leaf stage.
# (§2) Forms of compound A were applied on an acid equivalent basis.
# (§3) For treatments comprised of formulated compounds, measured amounts of compounds were placed individually in 25 mL glass vials and diluted in a volume of 1.25% (v/v) Agri-Dex® crop oil concentrated to obtain 12× stock solutions. […] Application solutions were prepared by adding an appropriate amount of each stock solution (e.g., 1 mL) and diluted to the appropriate final concentrations with the addition of 10 mL of an aqueous mixture of 1.25% (v/v) crop oil concentrate so that the final spray solutions contained 1.25+/−0.05% (v/v) crop oil concentrate.
# (§4) As required, additional water and/or 97:3 v/v acetone/DMSO was added to individual application solutions so that the final acetone and DMSO concentrations of the application solutions being compared were 8.1% and 0.25%, respectively.
# (§5) All stock solutions and applications solutions were visually inspected for compound compatibility prior to application. Spray solutions were applied to the plant material with an overhead Mandel track sprayer equipped with a 8002E nozzles calibrated to deliver 187 L/ha over an application area of 0.503 m^2 at a spray height of 18 to 20 inches (46 to 50 cm) above average plant canopy height. Control plants were sprayed in the same manner with the solvent blank.
# (§6) The treated plants and control plants were placed in a greenhouse as described above and watered by sub-irrigation to prevent wash-off of the test compounds. After approximately 3 weeks, the condition of the test plants as compared with that of the untreated plants was determined visually and scored on a scale of 0 to 100 percent where 0 corresponds to no injury or growth inhibition and 100 corresponds to complete kill.
# (§7) Colby's equation was used to determine the herbicidal effects expected from the mixtures (Colby, S. R. 1967. Calculation of the synergistic and antagonistic response of herbicide combinations. Weeds 15:20-22.).
# (§8) The following equation was used to calculate the expected activity of mixtures containing two active ingredients, A and B: Expected=A+B−(A×B/100)
# [2] = test system: Cyperus esculentus L. (CYPES); conditions: 20 DAA
# Method: as §1, §2, §3, §4, §5, §6, §7, §8
# [3] = test system: Cyperus difformis L. (CYPDI); conditions: 20 DAA; 5.3 g ae/ha
# Method: as §1, §2, §3, §4, §5, §6, §7, §8
structure (smiles),measurement,setting,value
"COc1c(Cl)ccc(-c2nc(C(=O)O)c(Cl)c(N)c2F)c1F [Compound A Acid, 4-amino-3-chloro-6-(4-chloro-2-fluoro-3-methoxyphenyl)-5-fluoropyridine-2-carboxylic acid]",Visual Weed Control (%) Obs,[1],25%
same,Visual Weed Control (%) Obs,[2]; 5.3 g ae/ha,0%
same,Visual Weed Control (%) Obs,[2]; 10.6 g ae/ha,90%
same,Visual Weed Control (%) Obs,[3],80%
